{"source": "patent US20260263550A1", "about": "“METHODS AND COMPOSITIONS FOR TREATING, PREVENTING, INHIBITING, AMELIORATING OR DELAYING THE ONSET OF OPHTHALMIC CONDITIONS” (Stealth BioTherapeutics Inc., priority 2021, published 2026)", "key": {"[1]": {"tested_on": "iPSC-derived RPE cells from AMD donors", "assay": "Cell viability assay on nitrite-modified ECM (Real Time-Glo MT Cell Viability Assay)", "assay_type": "cell-based, human", "settings": "10, 100, 1000 nM; 24 hours; versus vehicle-treated cells; FIG. 8J, *p<0.05", "experimental": "(§1) General. iPSC-derived RPE were generated from AMD patients (2 atrophic; 1 exudative) and patients with no history of AMD (n=3). To test the therapeutic efficacy of elamipretide and compound of Formula IIa, cell viability was analyzed on nitrite-modified extracellular matrix (ECM), a typical modification of aged Bruch's membrane, for 24 hrs. DNA microarrays were used to elucidate gene expression in AMD-derived RPE cultured on nitrite-modified ECM.\nPreparation of RPE cell-derived ECM and nitrite-modified ECM RPE cell-derived ECM plates were prepared from ARPE-19 cells as described in Wang et al., Curr Eye Res. 30:691-702 (2005); Fields et al. (2017); and Moreira et al., Transl Vis Sci Technol. 4:10 (2015). ECM on 96-well plates were used to create two experimental plating surfaces (nontreated ECM and nitrite-modified ECM). Nitrite-modified ECM was prepared by adding 100 mM sodium nitrite to ECM followed by incubation at 37° C. for 7 days. Plates were then washed with DPBS and incubated with DPBS for 4 hours to completely remove the nitrite. […]\nCell viability was measured by Real Time-Glo MT Cell Viability Assay (Promega, Madison, WI, www.promega.com) according to the manufacturer's protocol. […] Luminescent signals were acquired using a BioTek FLx800 plate reader (BioTek)."}, "[2]": {"tested_on": "iPSC-derived RPE cells from AMD donors", "assay": "Measurement of mitochondrial function (Seahorse XF Cell Mito Stress Test)", "assay_type": "cell-based, human", "settings": "10, 100, 1000 nM, treatment began 24 hours prior to assay, FIGS. 8AA-8AL", "experimental": "Measurement of mitochondrial function. Analysis of mitochondrial function was performed on live iPSC-derived RPE cells from AMD donors (n=3; 2 atrophic with GA, 1 exudative) treated with drug (elamipretide, compound of Formula IIa, or vehicle) as described below and iPSC-derived RPE cells from non-diseased controls (n=2) using the XFe96 Extracellular Flux Analyzer (Agilent Technologies, Santa Clara, California, www.agilent.com) and the Seahorse XF Cell Mito Stress Test (CMST) Kit (Agilent Technologies). iPSC-derived RPE cells were seeded onto a laminin-coated Seahorse XF plates and grown until confluent. Data were normalized by cell count. Drug treatments began 24 hours prior to assay. […]\nCells were stained with DAPI and counted by ImageJ software (National Institute of Health, Bethesda, Maryland, www.nih.gov). […] Oxygen consumption rate was detected under basal conditions followed by the sequential addition of oligomycin, carbonyl cyanide 4-(trifluoromethoxy) phenylhydrazone (FCCP), rotenone, and antimycin A. From these sequential additions, the following parameters can be derived: basal respiration, ATP production, maximal respiration, and spare respiratory capacity."}, "[3]": {"settings": "at 24 weeks of treatment; Pieramici & Ehlers, slide 15; cited from earlier work"}, "[4]": {"tested_on": "iPSC-derived RPE cells from AMD donors", "assay": "Microarray analysis of gene expression on in vitro Bruch's membrane model", "assay_type": "cell-based, human", "settings": "AMD-derived RPE on nitrite-modified ECM, 10, 100, 1000 nM, 24 hours", "experimental": "as §1\nMicroarray analysis. iPSC-derived RPE cells from AMD donors (n=3; 2 atrophic with GA, 1 exudative) were treated with drug (elamipretide or compound of Formula IIa) as described below and cultured on an in vitro Bruch's membrane model for 24 hours.\n• AMD donors only (n=3 individual donors) • Cells treated with elamipretide (also referred to as “309” in the figures) at 10 nM, 100 nM and 1000 nM • Cells treated with compound of Formula IIa (also referred to as “146c” in the figures) at 10 nM, 100 nM, 1000 nM\nMicroarray studies using Affymetrix GeneChip Human Clariom™ S Assay were performed as described in Gong et al. (2020)."}, "[5]": {"assay": "Uptake in plasma and compartments of the eye in a rabbit model (subcutaneous or topical ocular dosing)", "assay_type": "in vivo, Dutch Belted Rabbits", "experimental": "3 mg/mL elamipretide or compound of Formula IIa in saline was dosed subcutaneously at 1.5 mg/kg. A 3 mg/mL elamipretide or compound of Formula IIa formulation was prepared by dissolving 81 mg elamipretide in a total volume of 27 mL of sterile saline and mixing well. • (ii) Groups 2 & 4: Topical Ocular Formulation for administration of elamipretide or compound of Formula IIa\nFor each preparation (i.e., elamipretide or compound of Formula IIa, sodium chloride (105 mg) was dissolved in 16 mL of water for injection with mixing. With mixing, 82.8 mg of sodium phosphate monobasic, monohydrate was then added. With mixing, 0.400 mL of a 5 mg/mL benzalkonium chloride solution in water (to be prepared by diluting 0.100 mL of a 50% benzalkonium chloride solution in water to 10 mL with water for injection) was then added. Two hundred (200) mg of elamipretide or compound of Formula IIa was then added with mixing and the formulation pH was adjusted to 5.8 (+/−0.1) with 1 M sodium hydroxide in water solution. The final volume of the formulation was then be brought to 20 mL using water for injection. Each formulation (elamipretide or compound of Formula IIa) was used for topical ocular administration at a dose of 50 μL/eye OU.\nA total of 48 male Dutch Belted Rabbits were used in the study. Each animal was approximately 2 kg.\nFor subcutaneous administration, rabbits were dosed via a single subcutaneous injection of 1.5 mg/kg and at the scruff of the neck between the shoulder blades using a syringe with an attached 27G×½ inch needle (or similar). The site of injection was checked to ensure no leakage of dose immediately following administration.\nFor topical administration, a calibrated Gilson positive displacement pipette was used to administer 50 μL of formulation onto the globe the eye while the lower eyelid was pulled away from the globe. Administration was twice daily (i.e., BID). Doses were administered to both eyes, every 8 to 12 hours for 11 total doses.\nTerminal blood samples (approximately 6 mL) were collected from two animals/group/timepoint via the central ear artery at approximately 0.5, 1, 2, 4, 8, and 24 hours postdose. Blood samples were collected into tubes containing K2EDTA as the anticoagulant and inverted several times to ensure adequate mixing of blood and anticoagulant and placed on ice. Within 30 min of collection, samples were centrifuged to harvest plasma and stored at −80° C. until analyzed.\nFollowing blood collection, designated animals were euthanized by barbiturate overdose. Following euthanasia, both eyes of each rabbit were harvested and dissected for collection of ocular tissue and fluid. Optic nerve and retina were collected from Group 1 and 3 animals, and aqueous humor, retina, conjunctiva, cornea, sclera, and optic nerve were collected from Group 2 and 4 animals. Following dissection, all fluids and tissues were placed in pre-tared tubes, weight collected, and then flash frozen on dry ice and placed in a freezer at −80° C. or lower until analyzed. Concentrations of test article in plasma in the ocular tissues (ng/g tissue) and fluids (ng/mL fluid) were determined utilizing a method previously developed by the CRO."}}, "data": [{"substance": "elamipretide [reference compound]", "values": [{"measurement": "AMD-derived RPE cell viability on nitrite-modified ECM", "setting": "[1]", "value": "significantly enhanced"}, {"measurement": "mitochondrial function (ATP production; basal respiration; maximal respiration; spare respiratory capacity)", "setting": "[2]", "value": "efficacy in improving mitochondrial function"}, {"measurement": "Average BCVA and LLVA in NCGA and HRD patients", "setting": "[3]", "value": "improved significantly"}, {"measurement": "expression of complement regulatory genes including CFHR2", "setting": "[4]; FIG. 8S", "value": "increase expression"}, {"measurement": "expression of complement component genes (C1R, C3, C4A) increased by nitration of ECM", "setting": "[4]; FIGS. 8L-8P", "value": "reverse this trend"}, {"measurement": "expression of mitochondrial-related genes, such as CYP24A1 and GLS", "setting": "[4]; FIGS. 8W-8Z", "value": "altered the expression"}, {"measurement": "concentration in plasma, elamipretide compared with compound of Formula IIa", "setting": "[5]; SC 1.5 mg/kg single dose or topical eye drops BID, 11 doses, FIGS. 1A, 1B", "value": "roughly equivalent"}, {"measurement": "concentration accumulated in the retina, compared with the other test article", "setting": "[5]; regardless of mode of administration (topical or subcutaneous), FIGS. 2A, 2B", "value": "much lower"}]}]}
